Results as given in the NIST ThermoML archive (doi:10.1021/je030177j).

Assay: mn = molality of the nth substance listed, in mol/kg
Conditions: Liquid, Capillary tube (Ostwald / Ubbelohde) method

O=S(=O)([O-])[O-].[Li+].[Li+] [lithium sulfate] + O
viscosity [mPa·s]
Conditions | 10000 kPa | 20000 kPa | 30000 kPa
485.13 K, m1 = 0.885 | – | – | 0.1871
485.17 K, m1 = 0.28 | 0.1424 | 0.1452 | 0.1475
490.35 K, m1 = 0.1 | 0.1297 | 0.1322 | 0.1354
490.76 K, m1 = 0.56 | 0.1538 | 0.1567 | 0.1595
492.49 K, m1 = 0.885 | 0.1725 | 0.1761 | 0.179
495.14 K, m1 = 0.28 | 0.1352 | 0.1377 | 0.14
500.43 K, m1 = 0.885 | 0.1653 | 0.1688 | 0.1722
501.3 K, m1 = 0.1 | 0.1228 | 0.125 | 0.1275
509.17 K, m1 = 0.885 | 0.158 | 0.1614 | 0.1649
510.12 K, m1 = 0.56 | 0.1391 | 0.142 | 0.1455
510.93 K, m1 = 0.1 | 0.1172 | 0.1199 | 0.1235
515.27 K, m1 = 0.28 | 0.1224 | 0.1247 | 0.1271
517.75 K, m1 = 0.885 | 0.1513 | 0.155 | 0.1586
521.75 K, m1 = 0.1 | 0.1115 | 0.1143 | 0.117
522.75 K, m1 = 0.56 | 0.1308 | 0.1341 | 0.1373
525.95 K, m1 = 0.28 | 0.1166 | 0.1196 | 0.1225
526.12 K, m1 = 0.885 | 0.1453 | 0.1491 | 0.1527
530.53 K, m1 = 0.1 | 0.1072 | 0.1097 | 0.1122
532.85 K, m1 = 0.56 | 0.125 | 0.1281 | 0.131
538.24 K, m1 = 0.885 | 0.1372 | 0.1408 | 0.1443
540.08 K, m1 = 0.28 | 0.1096 | 0.1125 | 0.1156
541.04 K, m1 = 0.1 | 0.1024 | 0.1052 | 0.1087
547.35 K, m1 = 0.1 | 0.0998 | 0.1027 | 0.1055
550.72 K, m1 = 0.885 | 0.1297 | 0.1335 | 0.1372
551.24 K, m1 = 0.56 | 0.1151 | 0.1184 | 0.1214
560.12 K, m1 = 0.28 | 0.1011 | 0.104 | 0.1075
560.18 K, m1 = 0.885 | 0.1246 | 0.1282 | 0.1318
560.43 K, m1 = 0.1 | 0.0948 | 0.0977 | 0.0999
560.72 K, m1 = 0.56 | 0.1106 | 0.1132 | 0.115
569.15 K, m1 = 0.1 | 0.0917 | 0.0945 | 0.0977
572.05 K, m1 = 0.56 | 0.1056 | 0.1092 | 0.1126
573.45 K, m1 = 0.28 | 0.0962 | 0.0995 | 0.1025
574.55 K, m1 = 0.885 | 0.1176 | 0.1217 | 0.1255
574.75 K, m1 = 0.1 | 0.0897 | 0.0928 | 0.0957
